Test system: human melanoma cell line (A375)
Test: Tumor proliferation inhibitory effect in nude mice transplanted with human melanoma cell line A375 (relative tumor volume)
Format: in vivo, mouse
Settings: oral once daily 10 mL/kg (Compound A 1 mg/mL, PLX4032 10 mg/mL), A375 subcutaneous
Description: The present invention is described in more detail by way of Examples below. Example 1 Tumor Proliferation Inhibitory Effect of the Combined Use of Compound A and PLX4032 on a Human Melanoma Cell Line (A375)
Using five nude mice in one group (CAnN.Cg-Foxn1nu/CrlCrlj, female, Charles River Laboratories Japan, Inc.), the antitumor effect of administration of Compound A, PLX4032, or both of these compounds was evaluated. The human-derived melanoma cell line A375 (ATCC) was suspended in PBS (Wako Pure Chemical Industries, Ltd) at a density of 5×10^6 cells/ml, followed by thorough mixing. The resulting mixture was subcutaneously transplanted at the right flank of the body of each mouse in an amount of 0.1 mL. Fourteen days after transplantation, the major axis and the minor axis of a tumor were measured by a digital caliper (Digimatic™ caliper, Mitsutoyo Corporation). The mice were grouped so that the average value of tumor volume was nearly equal among the groups. Also, the tumor volume was calculated according to the equations below. Tumor volume (mm^3)=major axis (mm)×minor axis (mm)×minor axis (mm)/2
Compound A was dissolved in purified water at a concentration of 1 mg/mL. Also, PLX4032 was dissolved in DMSO at a concentration of 200 mg/ml. Further, the resulting solution was diluted 20-fold with a 1% aqueous solution of methylcellulose to prepare a 10 mg/mL PLX4032 suspension.
A control group, a Compound A group, a PLX4032 group, and a Compound A and PLX4032-combination group (hereinbelow, expressed as a combination group) were set up. The aqueous solution of Compound A or the PLX4032 suspension was orally administered to the mice in the Compound A group or the PLX4032 group, respectively, once daily at 10 mL/kg. To the combination group mice, the above drug solutions were each orally administered once daily at 10 mL/kg. The administration period was 23 days. Also, administration was not given to the control group mice.
The tumor volume was measured on the initial day of administration and on the 2nd, 5th, 7th, 9th, 12th, 14th, 16th, 19th, 21st, and 23rd days after initiation of administration. The ratio of the tumor volume on each day of measurement relative to the tumor volume on the initial day of administration was calculated as a relative tumor volume (hereinbelow, expressed as RTV). Further, the average value of RTV of mice in each group was calculated. The changes in the average value of RTV with time were shown in Table 1 and FIG. 1 and the value of each group on Day 23 was shown in FIG. 2.

[1] = Day 2 after initiation of administration
[2] = Day 5 after initiation of administration
[3] = Day 7 after initiation of administration
[4] = Day 9 after initiation of administration
[5] = Day 12 after initiation of administration
[6] = Day 14 after initiation of administration
[7] = Day 16 after initiation of administration
[8] = Day 19 after initiation of administration
[9] = Day 21 after initiation of administration
[10] = Day 23 after initiation of administration

Row | Structure (SMILES) | average relative tumor volume (RTV) [1] | average relative tumor volume (RTV) [2] | average relative tumor volume (RTV) [3] | average relative tumor volume (RTV) [4] | average relative tumor volume (RTV) [5] | average relative tumor volume (RTV) [6] | average relative tumor volume (RTV) [7] | average relative tumor volume (RTV) [8] | average relative tumor volume (RTV) [9] | average relative tumor volume (RTV) [10]
1 | COc1cc2nccc(Oc3ccc(NC(=O)NC4CC4)c(Cl)c3)c2cc1C(N)=O [Compound A, 4-[3-chloro-4-(cyclopropylaminocarbonyl)aminophenoxy]-7-methoxy-6-quinolinecarboxamide] | 1.77 | 2.62 | 3.40 | 3.85 | 5.12 | 5.40 | 6.30 | 7.89 | 9.16 | 10.17
2 | CCCS(=O)(=O)Nc1ccc(F)c(C(=O)c2c[nH]c3ncc(-c4ccc(Cl)cc4)cc23)c1F [PLX4032, N-(3-{[5-(4-chlorophenyl)-1H-pyrrolo[2,3-b]pyridin-3-yl]carbonyl}-2,4-difluorophenyl)propane-1-sulfonamide] | 0.98 | 0.94 | 1.00 | 1.13 | 1.46 | 1.38 | 1.52 | 1.63 | 1.80 | 1.93
